# Test results: patent publication US9006250B2, “4-amino-6-(heterocyclic)picolinates and 6-amino-2-(heterocyclic)pyrimidine-4-carboxylates and their use as herbicides” (Dow AgroSciences, LLC, priority 2013, dated 2015)
# Test system: EPHHL: wild poinsettia (Euphorbia heterophylla)
# Assay: Post-Emergent Test II herbicidal activity
# Assay type: in vivo
# Conditions: post-emergence, 336 h, 35 g ai/ha, 14 days, read-out: Visual Growth Reduction (%) 14 Days After Application EPHHL
# Protocol: (§1) Post-Emergent Test II: Seeds or nutlets of the desired test plant species were planted in Sun Gro Metro-Mix® 360 planting mixture, which typically has a pH of 6.0 to 6.8 and an organic matter content of about 30 percent, in plastic pots with a surface area of 64 square centimeters. When required to ensure good germination and healthy plants, a fungicide treatment and/or other chemical or physical treatment was applied. The plants were grown for 7-21 d in a greenhouse with an approximate 15 h photoperiod which was maintained at about 23-29° C. during the day and 22-28° C. during the night. Nutrients and water were added on a regular basis and supplemental lighting was provided with overhead metal halide 1000-Watt lamps as necessary. The plants were employed for testing when they reached the first or second true leaf stage.
# (§2) A weighed amount, determined by the highest rate to be tested, of each test compound was placed in a 25 mL glass vial and was dissolved in 4 mL of a 97:3 v/v mixture of acetone and DMSO to obtain concentrated stock solutions. […] The concentrated stock solutions obtained were diluted with 20 mL of an aqueous mixture containing acetone, water, isopropyl alcohol, DMSO, Atplus 411F crop oil concentrate, and Triton® X-155 surfactant in a 48.5:39:10:1.5:1.0:0.02 v/v ratio to obtain spray solutions containing the highest application rates. Additional application rates were obtained by serial dilution of 12 mL of the high rate solution into a solution containing 2 mL of 97:3 v/v mixture of acetone and DMSO and 10 mL of an aqueous mixture containing acetone, water, isopropyl alcohol, DMSO, Atplus 411F crop oil concentrate, and Triton X®-155 surfactant in a 48.5:39:10:1.5:1.0:0.02 v/v ratio to obtain ½×, ¼×, ⅛× and 1/16× rates of the high rate. Compound requirements are based upon a 12 mL application volume at a rate of 187 liters per hectare (L/ha). Formulated compounds were applied to the plant material with an overhead Mandel track sprayer equipped with 8002E nozzles calibrated to deliver 187 L/ha over an application area of 0.503 square meters at a spray height of 18 inches […] above the average plant canopy height. Control plants were sprayed in the same manner with the solvent blank.
# (§3) The treated plants and control plants were placed in a greenhouse as described above and watered by subirrigation to prevent wash-off of the test compounds. After 14 d, the condition of the test plants as compared with that of the untreated plants was determined visually and scored on a scale of 0 to 100 percent where 0 corresponds to no injury and 100 corresponds to complete kill.
row,SMILES,pest or weed control at 35 g/ha
1,COC(=O)c1nc(-c2ccc3nsnc3c2F)cc(N)c1Cl [Compound 14],60 to 74%

# Same assay, conditions: post-emergence, 336 h, 70 g ai/ha, 14 days, read-out: Visual Growth Reduction (%) 14 Days After Application EPHHL
row,SMILES,pest or weed control at 70 g/ha
1,COC(=O)c1nc(-c2ccc3nsnc3c2F)cc(N)c1Cl [Compound 14],85 to 94%

# Same assay, conditions: post-emergence, 336 h, 140 g ai/ha, 14 days, read-out: Visual Growth Reduction (%) 14 Days After Application EPHHL
row,SMILES,pest or weed control at 140 g/ha
1,COC(=O)c1nc(-c2ccc3nsnc3c2F)cc(N)c1Cl [Compound 14],95 to 100%

# Test system: HELAN: sunflower (Helianthus annuus)
# Assay: Post-Emergent Test II herbicidal activity
# Assay type: in vivo
# Conditions: post-emergence, 336 h, 35 g ai/ha, 14 days, read-out: Visual Growth Reduction (%) 14 Days After Application HELAN
# Protocol: as §1, §2, §3
row,SMILES,pest or weed control at 35 g/ha
1,COC(=O)c1nc(-c2ccc3nsnc3c2F)cc(N)c1Cl [Compound 14],0 to 29%

# Same assay, conditions: post-emergence, 336 h, 70 g ai/ha, 14 days, read-out: Visual Growth Reduction (%) 14 Days After Application HELAN
row,SMILES,pest or weed control at 70 g/ha
1,COC(=O)c1nc(-c2ccc3nsnc3c2F)cc(N)c1Cl [Compound 14],0 to 29%

# Same assay, conditions: post-emergence, 336 h, 140 g ai/ha, 14 days, read-out: Visual Growth Reduction (%) 14 Days After Application HELAN
row,SMILES,pest or weed control at 140 g/ha
1,COC(=O)c1nc(-c2ccc3nsnc3c2F)cc(N)c1Cl [Compound 14],30 to 44%

# Test system: ORYSA: rice (Oryza sativa)
# Assay: Post-Emergent Test II herbicidal activity
# Assay type: in vivo
# Conditions: post-emergence, 336 h, 35 g ai/ha, 14 days, read-out: Visual Growth Reduction (%) 14 Days After Application ORYSA
# Protocol: as §1, §2, §3
row,SMILES,pest or weed control at 35 g/ha
1,COC(=O)c1nc(-c2ccc3nsnc3c2F)cc(N)c1Cl [Compound 14],0 to 29%

# Same assay, conditions: post-emergence, 336 h, 70 g ai/ha, 14 days, read-out: Visual Growth Reduction (%) 14 Days After Application ORYSA
row,SMILES,pest or weed control at 70 g/ha
1,COC(=O)c1nc(-c2ccc3nsnc3c2F)cc(N)c1Cl [Compound 14],0 to 29%

# Same assay, conditions: post-emergence, 336 h, 140 g ai/ha, 14 days, read-out: Visual Growth Reduction (%) 14 Days After Application ORYSA
row,SMILES,pest or weed control at 140 g/ha
1,COC(=O)c1nc(-c2ccc3nsnc3c2F)cc(N)c1Cl [Compound 14],0 to 29%

# Test system: SETFA: giant foxtail (Setaria faberi)
# Assay: Post-Emergent Test II herbicidal activity
# Assay type: in vivo
# Conditions: post-emergence, 336 h, 35 g ai/ha, 14 days, read-out: Visual Growth Reduction (%) 14 Days After Application SETFA
# Protocol: as §1, §2, §3
row,SMILES,pest or weed control at 35 g/ha
1,COC(=O)c1nc(-c2ccc3nsnc3c2F)cc(N)c1Cl [Compound 14],0 to 29%

# Same assay, conditions: post-emergence, 336 h, 70 g ai/ha, 14 days, read-out: Visual Growth Reduction (%) 14 Days After Application SETFA
row,SMILES,pest or weed control at 70 g/ha
1,COC(=O)c1nc(-c2ccc3nsnc3c2F)cc(N)c1Cl [Compound 14],0 to 29%

# Same assay, conditions: post-emergence, 336 h, 140 g ai/ha, 14 days, read-out: Visual Growth Reduction (%) 14 Days After Application SETFA
row,SMILES,pest or weed control at 140 g/ha
1,COC(=O)c1nc(-c2ccc3nsnc3c2F)cc(N)c1Cl [Compound 14],0 to 29%

# Test system: TRZAS: wheat, spring (Triticum aestivum)
# Assay: Post-Emergent Test II herbicidal activity
# Assay type: in vivo
# Conditions: post-emergence, 336 h, 35 g ai/ha, 14 days, read-out: Visual Growth Reduction (%) 14 Days After Application TRZAS
# Protocol: as §1, §2, §3
row,SMILES,pest or weed control at 35 g/ha
1,COC(=O)c1nc(-c2ccc3nsnc3c2F)cc(N)c1Cl [Compound 14],0 to 29%

# Same assay, conditions: post-emergence, 336 h, 70 g ai/ha, 14 days, read-out: Visual Growth Reduction (%) 14 Days After Application TRZAS
row,SMILES,pest or weed control at 70 g/ha
1,COC(=O)c1nc(-c2ccc3nsnc3c2F)cc(N)c1Cl [Compound 14],0 to 29%

# Same assay, conditions: post-emergence, 336 h, 140 g ai/ha, 14 days, read-out: Visual Growth Reduction (%) 14 Days After Application TRZAS
row,SMILES,pest or weed control at 140 g/ha
1,COC(=O)c1nc(-c2ccc3nsnc3c2F)cc(N)c1Cl [Compound 14],0 to 29%

# Test system: ZEAMX: maize, corn (Zea mays)
# Assay: Post-Emergent Test II herbicidal activity
# Assay type: in vivo
# Conditions: post-emergence, 336 h, 35 g ai/ha, 14 days, read-out: Visual Growth Reduction (%) 14 Days After Application ZEAMX
# Protocol: as §1, §2, §3
row,SMILES,pest or weed control at 35 g/ha
1,COC(=O)c1nc(-c2ccc3nsnc3c2F)cc(N)c1Cl [Compound 14],0 to 29%

# Same assay, conditions: post-emergence, 336 h, 70 g ai/ha, 14 days, read-out: Visual Growth Reduction (%) 14 Days After Application ZEAMX
row,SMILES,pest or weed control at 70 g/ha
1,COC(=O)c1nc(-c2ccc3nsnc3c2F)cc(N)c1Cl [Compound 14],0 to 29%

# Same assay, conditions: post-emergence, 336 h, 140 g ai/ha, 14 days, read-out: Visual Growth Reduction (%) 14 Days After Application ZEAMX
row,SMILES,pest or weed control at 140 g/ha
1,COC(=O)c1nc(-c2ccc3nsnc3c2F)cc(N)c1Cl [Compound 14],0 to 29%
